The text below walks through data of PubChem BioAssay (NCI).

Values joined by “and” are separate entries in the source; they are usually repeats but may differ in a detail not shown here. Equal values may be shown once.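 Interpolation was linear, between the two tested concentrations surrounding the appropriate level; five concentrations were tested over 48 hours in 96-well plates. Here, GI50 denotes the concentration required for 50% inhibition of growth. TGI is the concentration that stops growth completely.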

Some test systems named below: UO-31 renal; UACC-62 melanoma; SF-268 CNS; SF-539 CNS; ACHN renal; SNB-75 CNS; COLO 205 colon; MDA-MB-435; SK-MEL-2 melanoma; NCI-H226 lung.
Holding throughout (assay): NCI tumour cell line growth inhibition, 48 h

As for `Nc1nnc(Cn2c(-c3ccccc3)nc3ccc(Br)cc3c2=O)s1`, the GI50 with UO-31 renal was above 100 µM; in the test with UACC-62 melanoma, 15.2 µM; in the test on SF-268 CNS, above 100 µM; in the test with SF-539 CNS it was 32.9 µM; in the test with ACHN renal, 39 µM; in the test on SNB-75 CNS it was above 100 µM. The values for the GI50 in the test with COLO 205 colon, in the test on MDA-MB-435 and in the test with SK-MEL-2 melanoma were 64.6 µM, 45.9 µM and above 100 µM, respectively. The TGI in the test on UO-31 renal, with UACC-62 melanoma, in the test on SF-268 CNS, in the test on SF-539 CNS, with ACHN renal and with SNB-75 CNS was above 100 µM in each case. Moreover, the TGI with COLO 205 colon, in the test on MDA-MB-435 and with SK-MEL-2 melanoma was above 100 µM throughout.

As to `CCCCC#CC#Cc1cccc(=O)o1`, the GI50 was 16.3 µM with NCI-H226 lung; 21.9 µM in the test on UO-31 renal; 16.1 µM with UACC-62 melanoma; 41.4 µM in the test on SF-268 CNS; 24.6 µM with SF-539 CNS; 14.6 µM in the test with ACHN renal. Moreover, the results for the GI50 with COLO 205 colon, in the test with MDA-MB-435 and in the test with SK-MEL-2 melanoma were 17.7 µM, 22 µM and 38.6 µM, respectively. For the same molecule, the TGI with NCI-H226 lung is 38.3 µM; in the test with UO-31 renal, 46.2 µM; in the test with UACC-62 melanoma, 32.8 µM; in the test on SF-268 CNS, above 100 µM; with SF-539 CNS, 51.6 µM; in the test with ACHN renal it was 28.7 µM. Also, the TGI was 35 µM in the test on COLO 205 colon, 48.6 µM in the test with MDA-MB-435 and 69.3 µM in the test with SK-MEL-2 melanoma.

With `CCCCn1sc(=O)n(Cc2ccc(CNC(=O)OCc3ccc4c(Br)cc(Br)c(O)c4n3)cc2)c1=O`, the GI50 with UO-31 renal is 1.05 µM; with UACC-62 melanoma, 0.916 µM; in the test on SF-268 CNS it was 1.05 µM; in the test on SF-539 CNS, 0.23 µM; in the test with ACHN renal it was 0.505 µM; in the test on SNB-75 CNS, 0.499 µM. Further, the GI50 with COLO 205 colon is 24.8 µM; with MDA-MB-435 it was 0.257 µM; with SK-MEL-2 melanoma it was 1.28 µM. The TGI is above 100 µM with UO-31 renal; above 100 µM with UACC-62 melanoma; above 100 µM with SF-268 CNS; 0.633 µM with SF-539 CNS; above 100 µM with ACHN renal; above 100 µM in the test on SNB-75 CNS. Also, the TGI is above 100 µM in the test on COLO 205 colon, 0.731 µM with MDA-MB-435 and above 100 µM with SK-MEL-2 melanoma.

For `CC(=O)OCC1O[C@@H]([S-])C(OC(C)=O)[C@H](OC(C)=O)[C@@H]1OC(C)=O.[Au+].c1ccc(CN2[CH-]N(Cc3ccccc3)C(c3ccccc3)=C2c2ccccc2)cc1`, the GI50 was 3 µM with NCI-H226 lung; 1.95 µM in the test on UO-31 renal; 1.76 µM in the test with UACC-62 melanoma; 1.85 µM in the test with SF-539 CNS; 1.82 µM with ACHN renal; 1.37 µM in the test on SNB-75 CNS. In addition, the values for the GI50 with COLO 205 colon, in the test on MDA-MB-435 and with SK-MEL-2 melanoma were 1.99 µM, 1.66 µM and 1.74 µM, respectively. Besides, the TGI is 9.04 µM in the test with NCI-H226 lung; 4.47 µM with UO-31 renal; 3.47 µM with UACC-62 melanoma; 3.56 µM in the test on SF-539 CNS; 3.51 µM with ACHN renal; 2.68 µM with SNB-75 CNS. Also, the TGI was 3.75 µM in the test on COLO 205 colon, 3.1 µM with MDA-MB-435 and 3.43 µM in the test on SK-MEL-2 melanoma.

For `N#Cc1ccc(C(c2ccc(C#N)cc2)n2cncn2)cc1`, the GI50 in the test on NCI-H226 lung is above 5000 µM; in the test on UO-31 renal, 60.8 µM and 119 µM; with UACC-62 melanoma, 51.5 µM; with SF-268 CNS, above 5000 µM; in the test on SF-539 CNS, 1250 µM; in the test with ACHN renal, above 5000 µM. Besides, the GI50 with SNB-75 CNS, in the test with COLO 205 colon and in the test with MDA-MB-435 was above 5000 µM in each case. The TGI with NCI-H226 lung, in the test on UO-31 renal, with SF-268 CNS, with SF-539 CNS, with ACHN renal and with SNB-75 CNS was above 5000 µM throughout. Also, the TGI in the test with COLO 205 colon and with MDA-MB-435 was above 5000 µM in each case.

Take `O=C(CC(=O)C1CCOC1=O)C(=O)Nc1ccc(Cl)cc1Cl` (stereo not drawn): the TGI in the test with NCI-H226 lung, in the test on UO-31 renal, with UACC-62 melanoma, in the test on SF-268 CNS, in the test with SF-539 CNS and in the test on ACHN renal was above 100 µM throughout. In addition, the TGI with SNB-75 CNS, in the test with COLO 205 colon and with SK-MEL-2 melanoma was above 100 µM in each case.

For the molecule `CC1=C(c2cc(C(=O)Nc3cccc(C(F)(F)F)c3)ncn2)Sc2ccccc2N1`, the TGI with NCI-H226 lung, in the test with UO-31 renal, with UACC-62 melanoma, in the test with SF-268 CNS, in the test with SF-539 CNS and in the test with ACHN renal was above 100 µM each time. The TGI in the test on SNB-75 CNS, in the test on COLO 205 colon and in the test with SK-MEL-2 melanoma was above 100 µM in each case.

Turning to `O=C(NO)C(=O)Nc1ccc(Cl)cc1[N+](=O)[O-]`, the TGI in the test on NCI-H226 lung, in the test with UO-31 renal, with UACC-62 melanoma, in the test on SF-268 CNS, in the test on SF-539 CNS and in the test with ACHN renal was above 100 µM throughout. Moreover, the TGI with SNB-75 CNS, with COLO 205 colon and in the test on SK-MEL-2 melanoma was above 100 µM throughout.

Consider `O=C(Oc1ccccc1Cl)c1ccccc1Nc1ccnc(C(F)(F)F)c1`, for which the GI50 in the test on NCI-H226 lung was 0.286 µM; with UO-31 renal it was 9.63 µM; in the test with UACC-62 melanoma, 0.165 µM; with SF-268 CNS, 0.71 µM; in the test with SF-539 CNS it was 0.383 µM; in the test with ACHN renal it was 0.281 µM. Also, the GI50 in the test with SNB-75 CNS was 0.676 µM; in the test on MDA-MB-435, 0.107 µM; in the test with SK-MEL-2 melanoma, 26.4 µM. For the same molecule, the TGI was 0.915 µM in the test with NCI-H226 lung; above 57.9 µM in the test on UO-31 renal; 2.05 µM in the test on UACC-62 melanoma; 1.88 µM in the test with SF-539 CNS; 0.808 µM in the test on ACHN renal; 27 µM in the test with SNB-75 CNS. For the same molecule, the TGI was 0.297 µM in the test on MDA-MB-435 and above 100 µM with SK-MEL-2 melanoma.
